The source of these data is patent US20200375880A1, “PLANT EXTRACTS FROM THE TAGETES GENUS AND USES OF SAME” (PLANT ADVANCED TECHNOLOGIES PAT, priority 2016, published 2020).

In one series the test system is cells. The conditions noted are these: pre-treatment of cells with leontopodic acid, Costa et al. 2010; cited from earlier work.
The test system of series [1] is rat primary cortical neurons. Nature of the series: Survival of primary cortical neurons injured by Aβ1-42 peptide (MAP-2 staining). It is filed as cell-based. Particulars: Aβ1-42 peptide 20 μM, 24 hours, 0.1% DMSO. How it is done: (§1) The purpose of this study is to evaluate the effects of the root extract on rat primary cortical neurons, intoxicated by Aβ peptide according to the in vitro Alzheimer disease model described in Callizot et al., 2013 (Callizot N. et al., Operational dissection of β-amyloid cytopathic effects on cultured neurons, J Neurosci Res. 2013, 91: 706-16). The neuron survival as well as the integrity of the neuritic network are evaluated.
(§2) Four concentrations are tested: 10 ng/mL, 100 ng/mL, 1 μg/mL and 10 μg/mL of dry extract diluted in water with 0.1% of DMSO.
(§3) Rat cortical neurons are cultured as described in Singer et al., 1999 (Singer C, et al., Mitogen-activated protein kinase pathway mediates estrogen neuroprotection after glutamate toxicity in primary cortical neurons. J Neurosci. 1999, 19: 2455-2463) and Callizot et al., (2013). In summary, gravid female rats are killed by cervical dislocation after 15 days of pregnancy. The foetuses are collected and immediately placed on an ice L15 Leibovitz medium (Pan Biotech, Batch: 8810315) added with 2% of penicillin (10,000 U/mL) and a streptomycin solution (l0 mg/mL) (PS; Pan Biotech, batch: 1451013) and 1% of bovine serum albumin (BSA; Pan Biotech, batch: K180713). […] The viable cells are counted with a Neubauer cytometer, using the trypan blue exclusion test. […]

The subject of series [2] is neuritic network of rat primary cortical neurons. The experiment in a line: Neuritic network of primary cortical neurons injured by Aβ1-42 peptide (MAP-2 staining). It is filed as cell-based. Particulars: Aβ1-42 peptide 20 μM, 24 hours, 0.1% DMSO. Here is the method: as §1, §2, §3

On to `C[C@H](O)CC(=O)O[C@@H](C(=O)O)[C@@H](OC(=O)/C=C/c1ccc(O)c(O)c1)[C@H](OC(=O)/C=C/c1ccc(O)c(O)c1)[C@H](OC(=O)/C=C/c1ccc(O)c(O)c1)C(=O)O` [leontopodic acid], for which, in the series on cells, the cell survival result is listed as “no improvement in the cell survival” and the “production of reactive oxygen species (ROS)” value is listed as “decrease in the production of reactive oxygen species (ROS)”.

Turning to “Aβ1-42 peptide: β-amyloid peptide (Bachem) used at 20 μM to intoxicate cortical neurons”, the “neurone death induced by the peptide alone” value in series [1] was “significant neurone death”. In series [2], the “loss of the neuritic network induced by the peptide alone” value is given as “significant loss of the neuritic network”.
